We go through 4 compounds from US6887862B2, “Method for improving treatment selectivity and efficacy using intravascular photodynamic therapy” (Miravant Systems, Inc., priority 2001, dated 2005).

“Also recorded” adds a separate entry of the source.

Series [1] relates to rat carotid artery. Nature of the series: Intravascular PDT treatment of rat carotid artery, histology (H&E) and clinical observation. Format: in vivo. The note with it: for Adverse symptoms in animals / PDT-induced damage in surrounding tissue (histology) / Acellularity within the media (H&E): blue light approximately 458 nm; for Acellularity in the medial wall / PDT effect / damage in surrounding tissue: balloon blood exclusion. An excerpt: The central lumen of this catheter was designed to allow passage of an optical fiber having a diffuser at its distal end. The fiber was positioned such that the diffusing section was centered within the light delivery balloon, thereby providing intravascular light delivery with minimal absorption by blood. Excitation was typically provided by a laser source at the proximal end of the device, which was focused on the proximal end of the fiber-optic diffuser. Typical wavelengths used were 405 nm, 407 nm, 413 nm, 436 nm, 442 nm, 458 nm, 514 nm, 532 nm, and the general range of 570-610 nm.
The surgery was performed by doing a cutdown to allow access to the right femoral artery, followed by insertion of the light delivery catheter. The catheter was then passed up through the iliac and abdominal aorta, through the aortic arch and into the left carotid artery. Once in place, the balloon was inflated to approximately 1 atmosphere using a standard angioplasty inflation device. This caused the balloon to expand to the diameter of the artery, while still allowing the pressure to be kept low enough to prevent significant over-stretch of the artery.
Prior to this surgery, the rats were injected with a photosensitizer drug to allow uptake of the drug into the target tissues. […] Induction of acellularity is believed to inhibit intimal hyperplasia, the most common cause of restenosis in post-angioplasty patients.
FIG. 1 is a low magnification image of a tissue cross section taken from the throat of a rat that has received PDT therapy using intravascular red light. […] (A bare fiber diffuser was used here since complete blood elimination is not necessary at this wavelength due to the relatively high penetration of light through blood at this wavelength.) The animal was sacrificed 4 days after the PDT treatment, the throat section was harvested, embedded and stained using hematoxylin and eosin (H&E). […] A balloon was placed around the fiber light diffuser here since it is important to eliminate blood at these wavelengths due to the optical absorption of hemoglobin. […] The animal was sacrificed 5 days after the PDT treatment, the throat section was harvested, embedded and stained using hematoxylin and eosin (H&E). […] In fact, it is widely believed that viable smooth muscle cells in the media and adventia are the source of the proliferating cells that are responsible for restenosis.
In FIG. 9, the results are listed in the columns titled Max. Accell., listing the acellularity measured in the section for which the acellularity was highest and Sur. Tissue Damage, listing the degree of surrounding tissue damage. […] The desired objective was to achieve significant acellularity with minimal damage to surrounding tissue.

In series [2] the test system is coronary artery. Nature of the series: Intravascular PDT treatment of swine coronary artery, heart harvested after treatment. Format: in vivo.
Series [3] is described as follows: Uptake of the drug within the target tissues by fluorescence microscopy and HPLC. Format: in vivo. The conditions noted are these: rat, systemic administration. The protocol: Prior to this surgery, the rats were injected with a photosensitizer drug to allow uptake of the drug into the target tissues. Uptake of the drug within the target tissues was confirmed by fluorescence microscopy and high pressure liquid chromatography (HPLC). […] Induction of acellularity is believed to inhibit intimal hyperplasia, the most common cause of restenosis in post-angioplasty patients. […] To our knowledge, such efficacy using intravascular light has never been achieved previously with PDT. […] This was notable since the target tissues appeared to contain a higher drug concentration and they were also located closest to the light source.

Series [4] is described as follows: Optical absorption spectrum of MV6401. It counts as physicochemical. The note with it: near 458 nm and 532 nm (FIG. 8).
Setting [5] is: rat carotid, approximately 4 hours after drug injection (FIG. 14).
The mark [6] stands for this setting: rat carotid, intravascular light at wavelengths within the disclosed 390-610 nm range.
The mark [7] stands for this setting: intravascular red light, high PDT doses.
The mark [8] stands for this setting: rat carotid, approximately 2 hours after drug injection (FIG. 15).

In the case of `CC(=O)[O-].CC(=O)[O-].CCc1c(CC)c2cc3nc(cnc4cc(OCCOCCOCCOC)c(OCCOCCOCCOC)cc4ncc4nc(cc1[n-]2)C(CCCO)=C4C)C(C)=C3CCCO.O.[Lu+3]` [LuTex, lutetium texaphyrin], in series [1] (setting [5]), the “Adverse symptoms in animals” value is “no animals displayed adverse symptoms” and the “PDT-induced damage in surrounding tissue (histology)” value is “minimal evidence of PDT-induced damage in surrounding tissue”. Also, the “Acellularity within the media (H&E)” value in series [1] (rat carotid, approximately 4 hours after drug injection, 3 days after PDT (FIG. 14)) was “nearly complete acellularity within the media”. In series [1] (setting [6]), the “Acellularity in the medial wall” value is given as “acellularity was induced in the medial wall” and the “PDT effect / damage in surrounding tissue” value (“PDT effect / damage” for short) is listed as “largely sparing the surrounding tissue”.

In the case of `C=Cc1c(C)c2[n]3c1=CC1=NC(=Cc4c(C)c5c([n]4[In]3[Cl])C(=C3N=C(C=2)[C@@H](C)[C@@H]3CCC(=O)OC)CC5=O)C(CC)=C1C` [MV6401], in series [1] (setting [6]), the “Clinical evidence of adverse PDT treatment effect” value is listed as “no clinical evidence of an adverse PDT treatment effect”, the “Acellularity in the medial wall” value is listed as “acellularity was induced within the medial wall; also recorded: acellularity was induced in the medial wall” and the “PDT effect / damage” value is given as “very minimal PDT effect in the surrounding tissue; also recorded: largely sparing the surrounding tissue”. For the same compound, the “PDT treatment effect in the target tissue (histology)” value in series [1] (rat carotid, intravascular red/infrared light) is “little or no PDT treatment effects in the target tissue”. Further, the Clinical symptoms result in series [1] (rat, 2 μmol/kg systemic, 458 nm, 100 J/cm^2, light 4 hours post drug (FIG. 3)) is listed as “no adverse clinical symptoms”. In series [1] (rat, 2 μmol/kg systemic, 458 nm, 100 J/cm^2, light 4 hours post drug (FIG. 4)), the “Acellularity in the vessel wall” value is given as “complete acellularity was induced in the vessel wall”. The “Surrounding tissue damage (inflammation and necrosis, H&E)” value in series [1] (rat, 2 μmol/kg systemic, 458 nm, 100 J/cm^2, light 4 hours post drug, balloon device, sacrificed 5 days after PDT (FIG. 3)) is “minimal PDT-induced inflammation and necrosis”. The “Acellularity within the vessel media and adventia” value in series [2] (blue (458 nm) or green (532 nm) intravascular light, surrounding tissue damage of the order of FIG. 6 and 7) was “complete acellularity can be achieved within the vessel media and adventia”. Besides, the “PDT-induced damage to myocardium / surrounding tissue” value in series [2] (intravascular blue light (458 nm) (FIG. 6)) is “minimal damage to the myocardium”. For the same compound, in series [2] (intravascular green light (532 nm) (FIG. 7)), the “PDT-induced damage to myocardium / surrounding tissue” value is on record as “minimal damage to the myocardium”. Also, in series [2] (setting [7]), the “Acellularity in media or adventia of the vessel” value is reported as “insignificant acellularity was induced in the media or adventia of the vessel” and the Clinical reactions entry is “severe adverse clinical reactions”. For the same compound, in series [3], the “Localization / uptake of photosensitizer in target tissue versus surrounding tissue” value is listed as “more strongly localized in the target tissue; also recorded: taken up preferentially in the target vessel tissue”. In addition, the “Absorption (molar extinction coefficient)” value in series [4] is given as over 1000 L cm^−1 M^−1.

In the case of `O=C([O-])c1c(Cl)c(Cl)c(Cl)c(Cl)c1-c1c2cc(I)c(=O)c(I)c-2oc2c(I)c([O-])c(I)cc12.[Na+].[Na+]` [Rose Bengal], in series [1] (setting [6]), the “Acellularity in the medial wall” value is “acellularity was induced in the medial wall” and the “PDT effect / damage” value is on record as “largely sparing the surrounding tissue”.

benzoporphyrin derivative [BPD]: in series [1] (setting [8]), the “Adverse symptoms in animals” value was “no animals displayed adverse symptoms” and the “PDT-induced damage in surrounding tissue (histology)” value is recorded as “minimal evidence of PDT-induced damage in surrounding tissue”. The “Acellularity within the media (H&E)” value in series [1] (rat carotid, approximately 2 hours after drug injection, 3 days after PDT (FIG. 15)) was “nearly complete acellularity within the media”. Also, in series [1] (setting [6]), the “Acellularity in the medial wall” value is given as “acellularity was induced in the medial wall” and the “PDT effect / damage” value is “largely sparing the surrounding tissue”.
